From PubChem BioAssay (NCI)
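At the GI50, growth is halved. TGI: total growth inhibition.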

Experiments:
Assay in all cases: NCI-60 cell line screen, 384-well format
[1] = system: NCI-H322M lung
[2] = system: NCI-H460 NSCLC
[3] = system: HT29 colon
[4] = system: IGROV1 ovarian
[5] = system: MALME-3M melanoma
[6] = system: HOP-62 NSCLC
[7] = system: OVCAR-5 ovarian
[8] = system: DU-145 prostate
[9] = system: OVCAR-4 ovarian
[10] = system: EKVX NSCLC
[11] = system: RPMI-8226 leukemia
[12] = system: PC-3 prostate
[13] = system: OVCAR-8 ovarian
[14] = system: HCT-116 colon
[15] = system: CAKI-1 renal
[16] = system: HCT-15 colon
[17] = system: SN12C renal
[18] = system: MOLT-4 leukemia
[19] = system: NCI-H23 lung
[20] = system: SK-MEL-28 melanoma
[21] = system: LOX IMVI melanoma
[22] = system: MDA-MB-435 melanoma
[23] = system: OVCAR-3 ovarian
[24] = system: SK-MEL-5 melanoma
[25] = system: HS 578T breast
[26] = system: UACC-62 melanoma
[27] = system: SF-539 CNS
[28] = system: NCI-H522 lung
[29] = system: SNB-75 CNS
[30] = system: UACC-257 melanoma
[31] = system: ACHN renal
[32] = system: MDA-MB-231 breast
[33] = system: HOP-92 NSCLC
[34] = system: TK-10 renal
[35] = system: A498 renal
[36] = system: NCI-H226 lung
[37] = system: HL-60(TB) leukemia
[38] = system: HCC-2998 colon
[39] = system: MCF7 breast
[40] = system: U251 glioblastoma
[41] = system: SR leukemia
[42] = system: KM12 colon
[43] = system: A549 NSCLC
[44] = system: M14 melanoma
[45] = system: SNB-19 CNS
[46] = system: SF-268 CNS
[47] = system: COLO 205 colon
[48] = system: SK-OV-3 ovarian
[49] = system: BT-549 breast

**Q.** Which GI50 [1] does the source give for Nc1nc(Nc2ccc(C3CCC(N4CCOCC4)CC3)cc2)nn1-c1ccccn1 (stereo not drawn) here?
**A.** 4.03 µM

**Q.** What about the TGI [1] of the same compound?
**A.** 15 µM

**Q.** What about the GI50 [2] of the same compound?
**A.** 3.17 µM

**Q.** What about the TGI [2] of the same compound?
**A.** 10.7 µM

**Q.** And the GI50 [3]?
**A.** 1.82 µM

**Q.** What about the TGI [3] of the same compound?
**A.** 3.59 µM

**Q.** And the GI50 [4]?
**A.** 3.06 µM

**Q.** And the TGI [4]?
**A.** 11.6 µM

**Q.** What about the GI50 [5] of the same compound?
**A.** 1.86 µM

**Q.** And the TGI [5]?
**A.** 4.1 µM

**Q.** And the GI50 [6]?
**A.** 2.58 µM

**Q.** And the TGI [6]?
**A.** 6.7 µM

**Q.** What about the GI50 [7] of the same compound?
**A.** 2.44 µM

**Q.** And the TGI [7]?
**A.** 5.19 µM

**Q.** What about the GI50 [8] of the same compound?
**A.** 3.08 µM

**Q.** What about the TGI [8] of the same compound?
**A.** 8.5 µM

**Q.** What about the GI50 [9] of the same compound?
**A.** 7.22 µM

**Q.** What about the TGI [9] of the same compound?
**A.** 27.8 µM

**Q.** And the GI50 [10]?
**A.** 4.45 µM

**Q.** And the TGI [10]?
**A.** > 100 µM

**Q.** What about the GI50 [11] of the same compound?
**A.** 2.3 µM

**Q.** And the TGI [11]?
**A.** 3.78 µM

**Q.** What about the GI50 [12] of the same compound?
**A.** 3.57 µM

**Q.** What about the TGI [12] of the same compound?
**A.** 11.9 µM

**Q.** And the GI50 [13]?
**A.** 5.06 µM

**Q.** And the TGI [13]?
**A.** > 100 µM

**Q.** What about the GI50 [14] of the same compound?
**A.** 2.42 µM

**Q.** And the TGI [14]?
**A.** 6 µM

**Q.** What about the GI50 [15] of the same compound?
**A.** 3.08 µM

**Q.** And the TGI [15]?
**A.** > 100 µM

**Q.** What about the GI50 [16] of the same compound?
**A.** 2.01 µM

**Q.** And the TGI [16]?
**A.** 4.14 µM

**Q.** What about the GI50 [17] of the same compound?
**A.** 1.05 µM

**Q.** What about the TGI [17] of the same compound?
**A.** 3.84 µM

**Q.** And the GI50 [18]?
**A.** 1.76 µM

**Q.** And the TGI [18]?
**A.** 3.19 µM

**Q.** What about the GI50 [19] of the same compound?
**A.** 2.77 µM

**Q.** What about the TGI [19] of the same compound?
**A.** > 100 µM

**Q.** What about the GI50 [20] of the same compound?
**A.** 1.81 µM

**Q.** And the TGI [20]?
**A.** 3.34 µM

**Q.** What about the GI50 [21] of the same compound?
**A.** 2.04 µM

**Q.** And the TGI [21]?
**A.** 3.63 µM

**Q.** What about the GI50 [22] of the same compound?
**A.** 2.25 µM

**Q.** What about the TGI [22] of the same compound?
**A.** 6.2 µM

**Q.** What about the GI50 [23] of the same compound?
**A.** 3.13 µM

**Q.** And the TGI [23]?
**A.** 7.21 µM

**Q.** And the GI50 [24]?
**A.** 1.7 µM

**Q.** What about the TGI [24] of the same compound?
**A.** 3.23 µM

**Q.** And the GI50 [25]?
**A.** 1.89 µM

**Q.** And the TGI [25]?
**A.** 3.54 µM

**Q.** What about the GI50 [26] of the same compound?
**A.** 2.03 µM

**Q.** What about the TGI [26] of the same compound?
**A.** 4.56 µM

**Q.** What about the GI50 [27] of the same compound?
**A.** 1.43 µM

**Q.** What about the TGI [27] of the same compound?
**A.** 3.02 µM

**Q.** What about the GI50 [28] of the same compound?
**A.** 3.11 µM

**Q.** What about the TGI [28] of the same compound?
**A.** 9.08 µM

**Q.** And the GI50 [29]?
**A.** 2 µM

**Q.** And the TGI [29]?
**A.** 3.94 µM

**Q.** What about the GI50 [30] of the same compound?
**A.** 1.83 µM

**Q.** What about the TGI [30] of the same compound?
**A.** 3.31 µM

**Q.** What about the GI50 [31] of the same compound?
**A.** 2.84 µM

**Q.** And the TGI [31]?
**A.** 7.6 µM

**Q.** What about the GI50 [32] of the same compound?
**A.** 4.56 µM

**Q.** What about the TGI [32] of the same compound?
**A.** > 100 µM

**Q.** And the GI50 [33]?
**A.** 4.97 µM

**Q.** What about the TGI [33] of the same compound?
**A.** 20.4 µM

**Q.** What about the GI50 [34] of the same compound?
**A.** 5.32 µM

**Q.** What about the TGI [34] of the same compound?
**A.** 24.1 µM

**Q.** What about the GI50 [35] of the same compound?
**A.** 2.57 µM

**Q.** And the TGI [35]?
**A.** 5.75 µM

**Q.** And the GI50 [36]?
**A.** 2.59 µM

**Q.** What about the TGI [36] of the same compound?
**A.** 6.49 µM

**Q.** And the GI50 [37]?
**A.** 1.35 µM

**Q.** What about the TGI [37] of the same compound?
**A.** 2.67 µM

**Q.** What about the GI50 [38] of the same compound?
**A.** 2.97 µM

**Q.** And the TGI [38]?
**A.** 6.32 µM

**Q.** What about the GI50 [39] of the same compound?
**A.** 3.43 µM

**Q.** And the TGI [39]?
**A.** > 100 µM

**Q.** What about the GI50 [40] of the same compound?
**A.** 2.02 µM

**Q.** And the TGI [40]?
**A.** 4.06 µM

**Q.** And the GI50 [41]?
**A.** 0.255 µM

**Q.** And the TGI [41]?
**A.** 0.559 µM

**Q.** And the GI50 [42]?
**A.** 0.291 µM

**Q.** And the TGI [42]?
**A.** > 100 µM

**Q.** And the GI50 [43]?
**A.** 3.49 µM

**Q.** And the TGI [43]?
**A.** > 100 µM

**Q.** What about the GI50 [44] of the same compound?
**A.** 2.26 µM

**Q.** And the TGI [44]?
**A.** 3.89 µM

**Q.** And the GI50 [45]?
**A.** 3.68 µM

**Q.** What about the TGI [45] of the same compound?
**A.** 16.5 µM

**Q.** And the GI50 [46]?
**A.** 3.37 µM

**Q.** And the TGI [46]?
**A.** 13.2 µM

**Q.** And the GI50 [47]?
**A.** 2.89 µM

**Q.** What about the TGI [47] of the same compound?
**A.** 5.83 µM

**Q.** What about the GI50 [48] of the same compound?
**A.** 3.33 µM

**Q.** And the TGI [48]?
**A.** > 100 µM

**Q.** What about the GI50 [49] of the same compound?
**A.** 1.67 µM

**Q.** And the TGI [49]?
**A.** 3.25 µM
